Measured values published in patent US11407756B2, “Heterocyclic compounds and noxious arthropod control agent containing same” (SUMITOMO CHEMICAL COMPANY, LIMITED, priority 2017, dated 2022).

Tested on: German cockroaches (Blattella germanica)
Assay: Test method 8: treated filter paper with sucrose, male adult German cockroaches
Format: in vivo
Conditions: 500 ppm, 0.7 mL on filter paper, after 6 days, 25° C.
Method: Next, Test Examples are used to show effects of the Present compounds X on harmful arthropods. In the following Test Examples, the tests were carried out at 25° C.
Each test compound is formulated according to the process described in the Formulation Example 5 to obtain each formulation, and water is added thereto to prepare a diluted solution containing a prescribed concentration of each test compound.
A filter paper having a diameter of 5.5 cm is lined with the inside bottom of a cup having a diameter of 5.5 cm, each of said diluted solutions (0.7 mL) is added dropwise on the filter paper, and sucrose (30 mg) is homogeneously placed into said cup as a feed. Two (2) male adult German cockroaches (Blattella germanica) are released into said cup, and the cup is covered. After 6 days, life and death of the German cockroach are examined, the number of the dead insects is counted, and the mortality of insects is calculated by the following equation. Mortality(%)=(Number of dead insects/Number of test insects)×100

For CCS(=O)(=O)c1cc(OC(C)C)cnc1-n1ccc2nc(C(F)(F)F)cn2c1=O [compound 12], the mortality was 100%.
